Among the data in PubChem BioAssay (NCI) are TGI and GI50 values, retold here.

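Growth conditions: 96-well plates. Treatment: test compound, 48 hours, 5 concentrations. Analysis: linear interpolation between bracketing concentrations; unreached endpoints set to highest concentration. The concentration for 50% growth inhibition is given as GI50. TGI: total growth inhibition.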

The first experiment has as its system EKVX NSCLC. The experiment is described as follows: NCI-60 cell line screen, 48 h.
As to `CCC1=CCN(c2cc(C)ccn2)OC1c1ccc(OC)cc1` (stereo not drawn), the TGI is more than 100 µM.
On the same count and under the same terms, for `CC(=O)Oc1c(C)c(-c2ccccc2)c(C)c(-c2ccccc2)c1C(=S)c1ccccc1` the value was more than 100 µM.
On the same count and under the same terms, then `N#CCC(=O)N/N=C1/C(=O)N(c2ccc(Cl)cc2)C(=O)C(=O)C1c1nc2ccccc2s1` (stereo not drawn), with more than 100 µM; and `CCCCCCCCCCCC(=O)OCCOCCOCCOCCOCCOC(=O)CCCCCCCCCCC`, with more than 100 µM.
As to `COc1ccc(C=O)cc1O[Si](C)(C)C(C)(C)C`, the TGI was more than 100 µM.
`CC1(O)C(C)(O)C2(C)O[Te]3(OC12C)OC1(C)C(C)(O)C(C)(O)C1(C)O3` (stereo not drawn) yielded a TGI of more than 100 µM.
Regarding `O=C1COc2cc(NC(=S)Nc3ccccc3)ccc2N1`, the TGI is more than 100 µM.
Same read-out and setting: for `O=S(=O)(C1=CC(S(=O)(=O)c2ccccc2)CN(Cc2ccccc2)C1c1cccc2ccccc12)c1ccccc1` (stereo not drawn) the value was more than 69 µM; for `O=C1C=C(Nc2ccccc2C(=O)CC(=O)C(=O)Nc2cccc([N+](=O)[O-])c2)c2ccccc2C1=O`, more than 100 µM; for `O=C(Nc1ccc(Cl)cc1)C1C(=O)C(=O)N(c2ccc(Cl)cc2)C1=O` (stereo not drawn), more than 100 µM.
Take `CCC[CH2][Sn]([CH2]CCC)([O]C(=O)CN)[O]C(=O)CN`: the GI50 was 16 µM and the TGI was determined as 51.2 µM.
`O=C(Nc1ccc(C(F)(F)F)cc1[N+](=O)[O-])C(=O)C1NC(=S)NC1=O` (stereo not drawn) displayed a TGI of more than 100 µM.
`COc1cc(NCC(C#N)C#N)ccc1N=Nc1ccc(Cl)cc1` displayed a TGI of 68.5 µM.
Consider `Cc1ccc(S(=O)(=O)OC2CC=CC2)cc1`, for which the TGI was more than 100 µM.
The same measure, in the same setting: then `C=CC[P@]1(=O)O[C@H](c2ccccc2)[C@H](C)N1C`, with more than 100 µM; and `COC(=O)C(=O)CC(=O)CCn1[nH]c(=O)c(Cl)c(Cl)c1=O`, with more than 100 µM.
For the compound `COc1ccc(NC(=O)CC/C(CC(=O)c2ccco2)=N/NC(=O)C(N)=O)cc1`, the TGI was more than 100 µM.
The same measure, in the same setting: for `NC(CCCC(N)P(=O)(O)O)P(=O)(O)O` (stereo not drawn) the value was more than 100 µM; for `CC(=O)C1C(c2ccccc2)C2(C)OC(=O)C(C#N)C12C` (stereo not drawn), more than 100 µM.
The same measure, in the same setting: then `C[C@]12CC=CC(=O)[C@@]1(C)CCC(=O)C2`, with more than 100 µM; and `CC(=O)Oc1cc2c(cc1OC(C)=O)C1(C)CCC2(C)c2cc(OC(C)=O)c(OC(C)=O)cc21`, with more than 100 µM.
Same read-out and setting: then `CCCC1(CC(=O)O)OCCc2c1[nH]c1ccccc21` (stereo not drawn), with more than 100 µM.

The subject of the next experiment is UACC-257 melanoma. Description: NCI-60 cell line screen, 48 h.
Consider `CCC1=CCN(c2cc(C)ccn2)OC1c1ccc(OC)cc1` (stereo not drawn), for which the TGI worked out at 86.1 µM.
On the same count and under the same terms, then `CC(=O)Oc1c(C)c(-c2ccccc2)c(C)c(-c2ccccc2)c1C(=S)c1ccccc1`, with more than 100 µM.
Same read-out and setting: then `N#CCC(=O)N/N=C1/C(=O)N(c2ccc(Cl)cc2)C(=O)C(=O)C1c1nc2ccccc2s1` (stereo not drawn), with more than 100 µM; and `CCCCCCCCCCCC(=O)OCCOCCOCCOCCOCCOC(=O)CCCCCCCCCCC`, with more than 100 µM.
Turning to `COc1ccc(C=O)cc1O[Si](C)(C)C(C)(C)C`, the TGI was more than 100 µM.
Take `CC1(O)C(C)(O)C2(C)O[Te]3(OC12C)OC1(C)C(C)(O)C(C)(O)C1(C)O3` (stereo not drawn): the TGI was more than 100 µM.
The same measure, in the same setting: for `O=C1COc2cc(NC(=S)Nc3ccccc3)ccc2N1` the value was more than 100 µM; for `O=S(=O)(C1=CC(S(=O)(=O)c2ccccc2)CN(Cc2ccccc2)C1c1cccc2ccccc12)c1ccccc1` (stereo not drawn), more than 69 µM; for `O=C1C=C(Nc2ccccc2C(=O)CC(=O)C(=O)Nc2cccc([N+](=O)[O-])c2)c2ccccc2C1=O`, 78.5 µM.
On to `CCC[CH2][Sn]([CH2]CCC)([O]C(=O)CN)[O]C(=O)CN`, for which the GI50 is 50.4 µM and the TGI was more than 100 µM.
`O=C(Nc1ccc(C(F)(F)F)cc1[N+](=O)[O-])C(=O)C1NC(=S)NC1=O` (stereo not drawn): the TGI is more than 100 µM.
`Cc1ccc(S(=O)(=O)OC2CC=CC2)cc1` registered a TGI of more than 100 µM.
The compound `COC(=O)C(=O)CC(=O)CCn1[nH]c(=O)c(Cl)c(Cl)c1=O` came in with a TGI of more than 100 µM.
Same read-out and setting: for `OCC12C=CC(C1)c1ccccc12` (stereo not drawn) the value was more than 100 µM.
On the same count and under the same terms, for `COc1ccc(NC(=O)CC/C(CC(=O)c2ccco2)=N/NC(=O)C(N)=O)cc1` the value was more than 100 µM; for `NC(CCCC(N)P(=O)(O)O)P(=O)(O)O` (stereo not drawn), more than 100 µM.
As to `CCOC(=O)[CH-]C(=O)C12CC3CC(CC(C3)C1)C2.CCOC(=O)[CH-]C(=O)C12CC3CC(CC(C3)C1)C2.CC[O-].CC[O-].[Ti+4]`, the GI50 is more than 100 µM and the TGI is more than 100 µM.
Compound `C[C@]12CC=CC(=O)[C@@]1(C)CCC(=O)C2` returned a TGI of more than 100 µM.
Same read-out and setting: for `CC(=O)Oc1cc2c(cc1OC(C)=O)C1(C)CCC2(C)c2cc(OC(C)=O)c(OC(C)=O)cc21` the value was 40.4 µM; for `CCCC1(CC(=O)O)OCCc2c1[nH]c1ccccc21` (stereo not drawn), more than 100 µM.

The next experiment concerns K-562 leukemia. The experiment is described as follows: NCI-60 cell line screen, 48 h.
In turn, `CCC1=CCN(c2cc(C)ccn2)OC1c1ccc(OC)cc1` (stereo not drawn) returned a TGI of more than 100 µM.
On the same count and under the same terms, for `CC(=O)Oc1c(C)c(-c2ccccc2)c(C)c(-c2ccccc2)c1C(=S)c1ccccc1` the value was more than 100 µM.
As for `CCCCCCCCCCCC(=O)OCCOCCOCCOCCOCCOC(=O)CCCCCCCCCCC`, the TGI was more than 100 µM.
On the same count and under the same terms, then `COc1ccc(C=O)cc1O[Si](C)(C)C(C)(C)C`, with more than 100 µM; and `CC1(O)C(C)(O)C2(C)O[Te]3(OC12C)OC1(C)C(C)(O)C(C)(O)C1(C)O3` (stereo not drawn), with 39 µM; and `O=C1COc2cc(NC(=S)Nc3ccccc3)ccc2N1`, with more than 100 µM.
Still for that read-out and setting: then `O=S(=O)(C1=CC(S(=O)(=O)c2ccccc2)CN(Cc2ccccc2)C1c1cccc2ccccc12)c1ccccc1` (stereo not drawn), with more than 69 µM.
The same measure, in the same setting: for `O=C1C=C(Nc2ccccc2C(=O)CC(=O)C(=O)Nc2cccc([N+](=O)[O-])c2)c2ccccc2C1=O` the value was more than 100 µM.
On to `O=C(Nc1ccc(Cl)cc1)C1C(=O)C(=O)N(c2ccc(Cl)cc2)C1=O` (stereo not drawn), for which the TGI is more than 100 µM.
For the compound `CCC[CH2][Sn]([CH2]CCC)([O]C(=O)CN)[O]C(=O)CN`, the GI50 was 18.7 µM and the TGI was more than 100 µM.
`O=C(Nc1ccc(C(F)(F)F)cc1[N+](=O)[O-])C(=O)C1NC(=S)NC1=O` (stereo not drawn) came in with a TGI of more than 100 µM.
For the compound `COc1cc(NCC(C#N)C#N)ccc1N=Nc1ccc(Cl)cc1`, the TGI was 50.5 µM.
Compound `CC(=O)c1ccc(NC(=O)/C(CC(=O)c2sc(-c3cccnc3)nc2C)=N/NC(N)=O)cc1` yielded a TGI of more than 100 µM.
Consider `Cc1ccc(S(=O)(=O)OC2CC=CC2)cc1`, for which the TGI is more than 100 µM.
For `C=CC[P@]1(=O)O[C@H](c2ccccc2)[C@H](C)N1C`, the TGI was more than 100 µM.
Take `COC(=O)C(=O)CC(=O)CCn1[nH]c(=O)c(Cl)c(Cl)c1=O`: the TGI was more than 100 µM.
Same read-out and setting: for `OCC12C=CC(C1)c1ccccc12` (stereo not drawn) the value was more than 100 µM; for `COc1ccc(NC(=O)CC/C(CC(=O)c2ccco2)=N/NC(=O)C(N)=O)cc1`, more than 100 µM.
On the same count and under the same terms, then `NC(CCCC(N)P(=O)(O)O)P(=O)(O)O` (stereo not drawn), with more than 100 µM.
For `CCOC(=O)[CH-]C(=O)C12CC3CC(CC(C3)C1)C2.CCOC(=O)[CH-]C(=O)C12CC3CC(CC(C3)C1)C2.CC[O-].CC[O-].[Ti+4]`, the GI50 is more than 100 µM and the TGI was more than 100 µM.
On to `CC(=O)C1C(c2ccccc2)C2(C)OC(=O)C(C#N)C12C` (stereo not drawn), for which the TGI is more than 100 µM.
In the case of `C[C@]12CC=CC(=O)[C@@]1(C)CCC(=O)C2`, the TGI is more than 100 µM.
Same read-out and setting: then `CC(=O)Oc1cc2c(cc1OC(C)=O)C1(C)CCC2(C)c2cc(OC(C)=O)c(OC(C)=O)cc21`, with 81.8 µM; and `CCCC1(CC(=O)O)OCCc2c1[nH]c1ccccc21` (stereo not drawn), with more than 100 µM.

A further experiment relates to SR leukemia. The experiment is described as follows: NCI-60 cell line screen, 48 h.
Take `CCC1=CCN(c2cc(C)ccn2)OC1c1ccc(OC)cc1` (stereo not drawn): the TGI is 68.5 µM.
As to `CC(=O)Oc1c(C)c(-c2ccccc2)c(C)c(-c2ccccc2)c1C(=S)c1ccccc1`, the TGI was more than 100 µM.
Regarding `CCCCCCCCCCCC(=O)OCCOCCOCCOCCOCCOC(=O)CCCCCCCCCCC`, the TGI is more than 100 µM.
On the same count and under the same terms, for `CC1(O)C(C)(O)C2(C)O[Te]3(OC12C)OC1(C)C(C)(O)C(C)(O)C1(C)O3` (stereo not drawn) the value was 51.3 µM; for `O=C1COc2cc(NC(=S)Nc3ccccc3)ccc2N1`, more than 100 µM; for `O=C(Nc1ccc(Cl)cc1)C1C(=O)C(=O)N(c2ccc(Cl)cc2)C1=O` (stereo not drawn), more than 100 µM.
On to `CCC[CH2][Sn]([CH2]CCC)([O]C(=O)CN)[O]C(=O)CN`, for which the GI50 was 22.9 µM and the TGI stood at 95.6 µM.
Turning to `O=C(Nc1ccc(C(F)(F)F)cc1[N+](=O)[O-])C(=O)C1NC(=S)NC1=O` (stereo not drawn), the TGI was more than 100 µM.
For the compound `COc1cc(NCC(C#N)C#N)ccc1N=Nc1ccc(Cl)cc1`, the TGI was 35.9 µM.
`CC(=O)c1ccc(NC(=O)/C(CC(=O)c2sc(-c3cccnc3)nc2C)=N/NC(N)=O)cc1`: the TGI was more than 100 µM.
`C=CC[P@]1(=O)O[C@H](c2ccccc2)[C@H](C)N1C` showed a TGI of more than 100 µM.
`OCC12C=CC(C1)c1ccccc12` (stereo not drawn) showed a TGI of more than 100 µM.
With `CCOC(=O)[CH-]C(=O)C12CC3CC(CC(C3)C1)C2.CCOC(=O)[CH-]C(=O)C12CC3CC(CC(C3)C1)C2.CC[O-].CC[O-].[Ti+4]`, the GI50 was more than 100 µM and the TGI is more than 100 µM.
Regarding `C[C@]12CC=CC(=O)[C@@]1(C)CCC(=O)C2`, the TGI is more than 100 µM.

A further experiment has as its system LOX IMVI melanoma. Description: NCI-60 cell line screen, 48 h.
Consider `CCC1=CCN(c2cc(C)ccn2)OC1c1ccc(OC)cc1` (stereo not drawn), for which the TGI was more than 100 µM.
The same measure, in the same setting: then `CC(=O)Oc1c(C)c(-c2ccccc2)c(C)c(-c2ccccc2)c1C(=S)c1ccccc1`, with more than 100 µM; and `N#CCC(=O)N/N=C1/C(=O)N(c2ccc(Cl)cc2)C(=O)C(=O)C1c1nc2ccccc2s1` (stereo not drawn), with more than 100 µM.
Regarding `CCCCCCCCCCCC(=O)OCCOCCOCCOCCOCCOC(=O)CCCCCCCCCCC`, the TGI was more than 100 µM.
Same read-out and setting: then `COc1ccc(C=O)cc1O[Si](C)(C)C(C)(C)C`, with more than 100 µM; and `CC1(O)C(C)(O)C2(C)O[Te]3(OC12C)OC1(C)C(C)(O)C(C)(O)C1(C)O3` (stereo not drawn), with 18.9 µM.
